Data as given in patent US20240059688A1, “CONOLIDINE ANALOGUES AS SELECTIVE ACKR3 MODULATORS FOR THE TREATMENT OF CANCER” (Luxembourg Institute of Health (LIH), priority 2020, published 2024).

Key:
Format in all cases: cell-based
CCR3 = molecular target: T1, CCR3 (Homo sapiens, UniProt P51677); test: NanoBiT β-arrestin-1 recruitment, receptor selectivity panel, CCR3; conditions: higher concentrations (3 μM, 10 μM); FIG. 3 sections B and C
T1 construct: expressed in transfected cells; host or cells: U87
T1 sequence (P51677 1-355): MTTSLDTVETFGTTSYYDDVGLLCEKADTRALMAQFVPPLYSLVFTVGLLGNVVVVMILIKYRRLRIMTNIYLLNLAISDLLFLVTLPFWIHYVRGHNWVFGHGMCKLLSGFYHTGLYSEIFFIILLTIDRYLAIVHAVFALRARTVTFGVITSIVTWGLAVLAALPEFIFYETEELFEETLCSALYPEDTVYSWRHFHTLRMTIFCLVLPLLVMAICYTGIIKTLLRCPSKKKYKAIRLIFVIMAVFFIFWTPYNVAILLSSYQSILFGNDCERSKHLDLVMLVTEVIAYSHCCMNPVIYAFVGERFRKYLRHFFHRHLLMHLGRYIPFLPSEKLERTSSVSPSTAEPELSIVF
Experimental: To further assess the selectivity profile of the compounds of the invention towards ACKR3, the ability to activate the 21 classical and 4 atypical chemokines receptors and related receptors was tested using the NanoBiT assay based β-arrestin-1 recruitment described previously. The 4 classical opioid receptors described above were also included in the experimental setup. The compounds WW-1 (conolidine) and WW-12 were tested at three different concentrations, 1 μM, 3 μM and 10 μM.
This possible off-target effect was further characterized by comparing the ability of the two molecules to activate receptors ACKR4, CX3CR1 and CCR3 with reference ligands for the receptors, namely CCL19, CX3CL1 and CCL13.
Ligand-induced β-arrestin recruitment to chemokine and opioid receptors was monitored by NanoLuc complementation assay (NanoBiT, Promega). […] Ligand-induced, β-arrestin to GPCRs was evaluated with a Mithras LB940 luminometer (Berthold Technologies, running on MicroWin 2010 5.19 software (Mikrotek Laborsysteme)) for 20 minutes.
For single dose screening experiments on all chemokine receptors(FIG. 3), the results are represented as percentage of signal monitored with 100 nM of one known agonist chemokine listed in the IUPHAR repository of chemokine receptor ligands which was added as positive control.

human CXCR4 = molecular target: T2, human CXCR4 (Homo sapiens, UniProt P61073); test: CXCR4 β-arrestin recruitment assay (PathHunter); conditions: human CXCR4-C2Cl2 cells, relative to CXCL-12
T2 construct: host or cells: C2C12
T2 sequence (P61073 whole entry): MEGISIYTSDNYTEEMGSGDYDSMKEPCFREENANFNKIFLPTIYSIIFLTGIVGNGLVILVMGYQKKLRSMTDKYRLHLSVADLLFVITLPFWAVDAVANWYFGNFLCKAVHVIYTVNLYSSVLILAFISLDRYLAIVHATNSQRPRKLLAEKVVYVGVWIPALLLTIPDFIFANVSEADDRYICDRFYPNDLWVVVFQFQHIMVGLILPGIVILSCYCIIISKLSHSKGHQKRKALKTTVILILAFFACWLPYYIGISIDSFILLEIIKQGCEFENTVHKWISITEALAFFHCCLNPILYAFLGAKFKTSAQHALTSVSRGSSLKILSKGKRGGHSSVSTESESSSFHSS
Procedure, shortened: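 Agonist mode in PathHunter CHO cells expressing human ACKR3-β-arrestin-2, compounds added in DPBS/1% DMSO for 1.5 hr at 37° C, then detection 1 hr at room temperature, luminescence read. CXCR4 run in C2C12 cells with a 3 hr Cell Plating Reagent 4 preincubation. EC50 and % Emax from three-parameter fits, CXCL-12 as reference agonist; ≥2 independent experiments in duplicate.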

ACKR3 [1] = molecular target: T3, ACKR3 (Homo sapiens, UniProt P25106); test: NanoBiT-based β-arrestin-2 recruitment assay, human ACKR3 in U87 cells; parameters: expressed in transfected cells; host or cells: U87; conditions: for agonist efficacy at hACKR3 compared to CXCL-12: NanoBiT β-arrestin recruitment, reference ligand CXCL-12; for EC50: NanoBiT, U87 cells, FIG. 1 section A, read-out: EC50, β-arrestin-2 recruitment to hACKR3
Experimental: Concentration-response studies were performed with molecules WW-1 (conolidine) and WW-12 on the human and mouse ACKR3 receptors in U87 cells using a NanoBiT-based β-arrestin-2 recruitment assay […] to evaluate their efficacy and potency towards the two receptors.
Ligand-induced β-arrestin recruitment to chemokine and opioid receptors was monitored by NanoLuc complementation assay (NanoBiT, Promega). In brief, 1.2×10^6 U87 cells were plated in 10-cm culture dishes and 48 hours later co-transfected with pNBe vectors encoding GPCRs (ACKR3, MOR, DOR, KOR, or NOP) C-terminally tagged with SmBiT and human β-arrestin-1 (arrestin-2) or β-arrestin-2 (arrestin-3) N-terminally fused to LgBiT. 48 hours post-transfection cells were harvested, incubated 25 minutes at 37° C. with Nano-Glo Live Cell substrate diluted 200-fold and distributed into white 96-well plates (5×10^4 cells per well). Ligand-induced, β-arrestin to GPCRs was evaluated with a Mithras LB940 luminometer (Berthold Technologies, running on MicroWin 2010 5.19 software (Mikrotek Laborsysteme)) for 20 minutes.
For concentration-response curves (FIG. 2), the signal recorded with a saturating concentration of full agonist for each receptor was set as 100%. To evaluate the antagonist properties of ligands, full agonists of each receptor (50 nM BAM22 for MOR, 50 nM dynorphin A for KOR, 70 nM met-enkephalin for DOR, 70 nM nociceptin for NOP and 4 nM CXCL12 for ACKR3) were added after the 20-minute incubation with the ligands.
Target sequence in this assay (P25106 whole entry): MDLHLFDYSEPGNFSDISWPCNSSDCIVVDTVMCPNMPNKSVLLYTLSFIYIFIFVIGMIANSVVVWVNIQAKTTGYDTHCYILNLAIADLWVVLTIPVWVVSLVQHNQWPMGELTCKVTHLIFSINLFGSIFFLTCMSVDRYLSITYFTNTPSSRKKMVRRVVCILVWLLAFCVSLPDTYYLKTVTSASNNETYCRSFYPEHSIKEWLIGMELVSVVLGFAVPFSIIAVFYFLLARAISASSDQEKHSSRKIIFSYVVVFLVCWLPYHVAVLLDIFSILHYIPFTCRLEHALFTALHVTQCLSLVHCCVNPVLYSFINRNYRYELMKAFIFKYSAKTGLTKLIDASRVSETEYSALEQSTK
Target sequence in this assay (P32121 whole entry partner): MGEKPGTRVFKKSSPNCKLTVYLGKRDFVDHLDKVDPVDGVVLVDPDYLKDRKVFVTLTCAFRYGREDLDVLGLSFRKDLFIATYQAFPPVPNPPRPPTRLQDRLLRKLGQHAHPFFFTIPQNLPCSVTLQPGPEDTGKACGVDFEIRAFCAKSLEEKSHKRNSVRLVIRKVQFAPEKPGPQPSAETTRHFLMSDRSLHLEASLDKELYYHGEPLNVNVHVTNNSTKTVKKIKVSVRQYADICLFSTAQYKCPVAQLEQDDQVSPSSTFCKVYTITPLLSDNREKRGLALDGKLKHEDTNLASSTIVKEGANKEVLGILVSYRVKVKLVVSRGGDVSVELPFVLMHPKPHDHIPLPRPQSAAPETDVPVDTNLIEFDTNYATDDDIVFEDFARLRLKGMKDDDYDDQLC

ACKR3 [2] = molecular target: T3, ACKR3; test: ACKR3-mediated uptake of Cy5-labeled BAM22 in U87-ACKR3 cells (imaging flow cytometry); parameters: expressed in transfected cells; host or cells: U87-ACKR3 (ACKR3-negative U87 as control); conditions: concentration-dependent, FIG. 7
Experimental: U87-ACKR3 cells were distributed into 96-well plates (2×10^5 cells per well in Opti-MEM). After 15-minute incubation at 37° C. with WW-1 or WW-12 or controls, Cy5-labeled BAM22 was added, incubated for 40 minutes at 37° C. and washed twice with FACS buffer. Dead cells were excluded using Zombie Green viability dye. Images of 1×10^4 in-focus living single cells were acquired with an ImageStream MKII imaging flow cytometer (Amnis, running on the INSPIRE Mark II software (EMD Millipore)) using 40× magnification (60× magnification for smNPCs). Samples were analyzed using Ideas6.2 software. The number of spots per cell was determined using a mask-based software wizard.
Target sequence in this assay (P25106 whole entry): as the sequence (P25106 whole entry) above

| activation of CCR3 (β-arrestin-1 recruitment) in receptor panel (CCR3) | CXCR4 β-arrestin % CXCL-12Emax (n = 2) (human CXCR4) [%] | agonist efficacy at hACKR3 compared to CXCL-12 (ACKR3 [1]) | agonist efficacy at hACKR3 compared to CXCL-12 (ACKR3 [1]; listed as conolidine) | EC50 (ACKR3 [1]) [µM] | inhibition of uptake of Cy5-labelled BAM22 by ACKR3 (ACKR3 [2]) | SMILES |
| --- | --- | --- | --- | --- | --- | --- |
| weak activation | 3 | full agonists | full agonist | 16.6 | able to restrain the uptake | C/C=C1/CN2CC[C@H]1C(=O)c1[nH]c3ccccc3c1C2 [WW-1, (4E,5R)-4-ethylidene-1,4,5,7-tetrahydro-2,5-ethanoazocino[4,3-b]indol-6(3H)-one] |
| weak activation | 4 | full agonists | – | 0.7 | able to restrain the uptake | C/C=C1/CN(CCCCC)CC[C@H]1C(=O)c1cc2ccccc2[nH]1 [WW-12, [(3E,4R)-3-ethylidene-1-pentylpiperidin-4-yl](1H-indol-2-yl)methanone] |
